From patent publication EP1708692B1, “DICHLOROACETATE IN COMBINATION WITH AN INOTROPE FOR CARDIOPROTECTION” (The Governors of the University of Alberta, priority 2004, dated 2005)
Where “and” joins values, the source holds several entries; their conditions need not be identical. Equal values may be shown once. Read-outs that look alike come from different tables or passages of the source.

Tests used:
[1] = Plasma DCA levels by HPLC after bolus, adult CABG patients (Example A); type: in vivo; details: human, 50 mg/kg, following infusion of 50mg/kg Na+ Dichloroacetate via cardiopulmonary bypass pump, 1 hour following administration, n=8
Description: (§1) DCA or saline was administered to 18 patients undergoing elective cardiac bypass grafting surgery (CABG) in a double blinded randomized manner DCA (50mg/kg in 100 ml of saline) or placebo was injected into the aortic root, immediately prior to removing aortic cross clamp. Based on the pharmacokinetics of DCA, we anticipated that this would produce a plasma concentration of approximately 1 mM. The study consisted of 8 DCA-treated patients and 10 placebo-treated patients.
(§2) The intervention involved DCA (50mg/kg) or placebo injected into the aortic root immediately prior to removing aortic cross clamp. The coded solution was made such that a dose of lml/kg provides the appropriate dose of DCA or placebo. Based on the pharmacokinetics of DCA, this was expected to result in a plasma level of DCA in the therapeutic range of (1mM). All blood samples were analyzed by HPLC for DCA concentration.
Plasma samples were processed for DCA levels using a high performance liquid chromatography (HPLC) technique that separated the DCA from other plasma constituents. In brief, 20 µl of plasma sample was injected into a Beckman Gold HPLC containing a IonoBpher 5A column (250x4.6mm LxID) and a AX Guard Column. […] The flow rate of the HPLC was set at 3.0 ml/min and the DCA eluted from the column was detected by comparing DCA elution times to acetate, monochloroacetate, and trichloroacetate standards. […]

[2] = system: patients; assay: Observed side effects of DCA in patients
[3] = system: pediatric patients requiring heart surgery to correct complex congenital heart lesions; assay: Clinical outcome after DCA bolus and 24 hour infusion: Inotrope Score, ICU time, ventilator time (Example C); type: in vivo; set-up: reduction of Inotrope Scores: concentration or dose not given beside the values; details: compared to placebo; for average decrease in Inotrope Score per patient: over the 24 hour period
Description: This study was a randomized, placebo-controlled, double blinded, single surgeon, study of the use of DCA in 51 high-risk pediatric patients requiring heart surgery to correct complex congenital heart lesions.
In this trial, 53 infants were recruited to participate in a study, of which 51 patients met inclusion criteria after parental consent. Two dosing groups resulted from the study team changing the dosing protocol after the data from the initial 10 patients were analyzed. The data from patients number 1 to number 10 was analyzed for DCA therapeutic blood levels and therapeutic effect. A recommendation by the research team was made to increase the bolus dose of DCA and to decrease the infusion dose of DCA to maintain a DCA dose range of 1mM for 24 hours. The intent was to administer the new protocol at patient number 20. The 1997 Epicore power calculations were based on separation of the study groups patients into group A of n = 20 patients and Group B of n = 31 patients
(§3) DCA (50mg/kg) or placebo was injected into the aortic root immediately prior to removing aortic cross clamp. The coded solutions were made such that a dose of 1 ml/kg provided either a DCA therapeutic level of 1mM plasma concentration of DCA, or a placebo solution. Immediately thereafter, an infusion of DCA at 25mg/kg/hr or placebo in the same volume was initiated and run for 24 hours. Based on the pharmacokinetics of DCA, this was expected to maintain plasma levels of DCA in the therapeutic range of (0.2-1mM). However, the plasma concentrations of DCA were below 1mM after the first hour interval, and that the 24 hour plasma concentrations were elevated above 1mM DCA levels at the 24 hour interval, a decision was made to modify the dosing protocol. This change in dosing protocol was approved by the Ethics Committee, but not implemented until patient number 24. All blood samples were analyzed by HPLC for DCA concentration.
(§4) DCA (100mg/kg) or placebo was injected into the aortic root immediately prior to removing aortic cross clamp. The coded solutions were made such that a dose of 1 ml/kg provided either a DCA therapeutic level of 1mM plasma concentration of DCA, or a placebo solution. Immediately thereafter, an infusion of DCA at 12.5mg/kg/hr or placebo in the same volume was initiated and run for 24 hours. Based on the pharmacokinetics of DCA, this was expected to maintain plasma levels of DCA in the therapeutic range of (0.2-1mM). All blood samples were analyzed by HPLC for DCA concentration.
(§5) In both the operating room at the end of cardiopulmonary bypass and in the intensive care unit, parenteral drugs were scored on an hourly basis with 1 point allotted for each level for each bolus or infusion given within the previous hour within the first 24 hours post-operatively. Thus at the end of 24 hours, high scores indicated poorer cardiac function.

[4] = system: pediatric patients requiring heart surgery to connect complex congenital heart lesions; assay: Clinical outcome after single DCA bolus: Inotrope Score, ICU time, ventilator time, echocardiography (Example B); type: in vivo; details: 50mg/kg bolus, placebo patients 26%
Description: This study was a randomized, placebo-controlled, double blinded, single surgeon, study of the use of DCA in 40 high-risk pediatric patients requiring heart surgery to connect complex congenital heart lesions.
In this trial, 40 children were recruited to participate in a single surgeon study, of which 18 received DCA and 22 received placebo. The 1995 power calculations were based on separation of the CPB-1 trial of n = 40 patients.
as §2, with “in” for “in a”, “levels” for “level”
as §5, with “hour for” for “hour within”, “post-operatively. Thus,” for “post-operatively. Thus”, “24 hours” for “24 hours,”

[5] = Plasma DCA levels by HPLC, bolus and infusion protocol (Example C); type: in vivo, pediatric patients; details: human
Description: as §3, §4
Arterial blood samples were obtained from patients at the following times: • a. Immediately after the insertion of arterial line in operating room (i.e., at beginning of surgery). • b. Thirty minutes after the bolus of DCA has been given, whether or not cardiopulmonary bypass has been discontinued. • c. One hour after discontinuing cardiopulmonary bypass. • d. Six hours after discontinuing cardiopulmonary bypass • e. Twelve hours after discontinuing cardiopulmonary bypass. • f. Twenty four hours after discontinuing cardiopulmonary bypass. At the end of 24 hours, the DCA or placebo infusion was discontinued.
Blood samples were collected from indwelling arterial lines into citrate-containing tubes (0.5 ml blood samples). The samples were spun in the microfuge, the plasma separated, and frozen immediately for later analysis. All plasma samples were stored at -80 degrees centigrade, until further processing. Plasma glucose and lactate were determined using a Sigma glucose kit and a spectrophotometric assay involving lactate dehydrogenase respectively. Plasma fatty acid levels were measured using an ELISA system and WAKO free fatty acid kit.

[6] = system: patients undergoing elective cardiac bypass grafting surgery (CABG); assay: Mortality in adult CABG study (Example A); type: in vivo, human; details: 50mg/kg bolus, 8 DCA-treated adult patients
Description: as §1, §2

[7] = Group A, 50mg/kg bolus and 25mg/kg/hour infusion
[8] = Group B, 100mg/kg bolus and 12.5mg/kg/hour infusion

## O=C(O)C(Cl)Cl [DCA, dichloroacetate]
[1]
  concentration at 1 h: ~1000 µM
[2]; general observation in patients
  side-effects: not have significant side-effects, although some patients experience mild drowsiness
[2]; previous (pilot) studies
  adverse effects of DCA: no adverse effects
[3]; Group A, 50mg/kg bolus and 25mg/kg/hour infusion, 23 patients
  reduction of time in ICU: 60 h
[3]; [7]
  decrease of time in ICU: 41%
  decrease of ventilator time: 47%
  reduction of ventilator time: 46 h
[3]; Group A, by 1 hour
  reduction of Inotrope Scores: 50%
[3]; Group A, by 12 hours
  reduction of Inotrope Scores: 45%
[3]; Group A, by 24 hours
  reduction of Inotrope Scores: 38%
[3]; Group A
  average decrease in Inotrope Score per patient: 44%
[3]; Group B, 100mg/kg bolus and 12.5mg/kg/hour infusion, 24 patients
  reduction of time in ICU: 50 h
[3]; [8]
  decrease of time in ICU: 40%
  decrease of ventilator time: 23%
  reduction of ventilator time: 18 h and 19 h
[3]; Group B, by 1 hour
  reduction of Inotrope Scores: 57%
[3]; Group B, by 12 hours
  reduction of Inotrope Scores: 49%
[3]; Group B, by 24 hours
  reduction of Inotrope Scores: 45%
[3]; Group B
  average decrease in Inotrope Score per patient: 51%
[4]
  shortening fraction (echocardiography): 35%
[5]; 50 mg/kg, Example C, 24 hour interval (Group A), read-out: optimum mean level of DCA in plasma
  concentration at 24 h: 2.29 mM
[5]; 50 mg/kg, Group A protocol (50mg/kg bolus, 25mg/kg/hr infusion), 24 hour interval, initial patients, read-out: plasma concentrations of DCA
  concentration at 24 h: > 1 mM
[5]; 50 mg/kg, Group A protocol (50mg/kg bolus, 25mg/kg/hr infusion), after the first hour interval, initial patients, read-out: plasma concentrations of DCA
  concentration at 1 h: < 1 mM
[5]; 50 mg/kg, Group A, 50mg/kg bolus and 25mg/kg/hr infusion, n=9, read-out: Average DCA Plasma Levels, mM at 12 hr
  concentration at 12 h: 1.77 mM
[5]; 50 mg/kg, Group A, 50mg/kg bolus and 25mg/kg/hr infusion, n=10, read-out: Average DCA Plasma Levels, mM at 6 hr
  concentration at 6 h: 1.13 mM
[5]; 50 mg/kg, Group A, 50mg/kg bolus and 25mg/kg/hr infusion, n=11, read-out: Average DCA Plasma Levels, mM at 1 hr
  concentration at 1 h: 0.46 mM
[5]; 50 mg/kg, Group A, 50mg/kg bolus and 25mg/kg/hr infusion, n=11, read-out: Average DCA Plasma Levels, mM at 24 hr
  concentration at 24 h: 2.72 mM
[5]; 50 mg/kg, Group A, 50mg/kg bolus and 25mg/kg/hr infusion, patients with greatest degree of clinical benefits, m=5, read-out: Average Optimum Mean of DCA Plasma Levels, mM at 6 hr
  concentration at 6 h: 0.916 mM
[5]; 50 mg/kg, Group A, 50mg/kg bolus and 25mg/kg/hr infusion, patients with greatest degree of clinical benefits, m=5, read-out: Average Optimum Mean of DCA Plasma Levels, mM at 12 hr
  concentration at 12 h: 1.52 mM
[5]; 50 mg/kg, Group A, 50mg/kg bolus and 25mg/kg/hr infusion, patients with greatest degree of clinical benefits, m=6, read-out: Average Optimum Mean of DCA Plasma Levels, mM at 24 hr
  concentration at 24 h: 2.29 mM
[5]; 100 mg/kg, Example C, 1 to 6 hour period (Group B), read-out: optimum mean level of DCA in plasma
  concentration at 6 h: 1 mM
[5]; 100 mg/kg, Group B, 100mg/kg bolus and 12.5 mg/kg/hr infusion, n not given, read-out: Average Optimum Mean of DCA Plasma Levels, mM at 6 hr
  concentration at 6 h: 1 mM
[5]; 100 mg/kg, Group B, 100mg/kg bolus and 12.5 mg/kg/hr infusion, n not given, read-out: Average Optimum Mean of DCA Plasma Levels, mM at 12 hr
  concentration at 12 h: 1 mM
[5]; 100 mg/kg, Group B, 100mg/kg bolus and 12.5 mg/kg/hr infusion, n not given, read-out: Average Optimum Mean of DCA Plasma Levels, mM at 24 hr
  concentration at 24 h: 1 mM
[5]; 100 mg/kg, Group B, 100mg/kg bolus and 12.5 mg/kg/hr infusion, n=10, read-out: Average DCA Plasma Levels, mM at 24 hr
  concentration at 24 h: 2.23 mM
[5]; 100 mg/kg, Group B, 100mg/kg bolus and 12.5 mg/kg/hr infusion, n=11, read-out: Average DCA Plasma Levels, mM at 1 hr
  concentration at 1 h: 1.13 mM
[5]; 100 mg/kg, Group B, 100mg/kg bolus and 12.5 mg/kg/hr infusion, n=11, read-out: Average DCA Plasma Levels, mM at 6 hr
  concentration at 6 h: 0.894 mM
[5]; 100 mg/kg, Group B, 100mg/kg bolus and 12.5 mg/kg/hr infusion, n=11, read-out: Average DCA Plasma Levels, mM at 12 hr
  concentration at 12 h: 1.43 mM
[5]; Example C, 1 to 6 hour interval, read-out: DCA plasma level range
  concentration at 6 h: 0.229 to 2.22 mM
[5]; Example C, 12 hour interval, read-out: DCA plasma level range
  concentration at 12 h: 0.38 to 3.07 mM
[5]; Example C, 12 hour interval, read-out: optimum mean level of DCA in plasma
  concentration at 12 h: 1.52 mM
[5]; Example C, 24 hour interval, read-out: DCA plasma level range
  concentration at 24 h: 1.74 to 3.9 mM
[5]; Group A, 50mg/kg bolus and 25mg/kg/hr infusion, patients with greatest degree of clinical benefits, n not given, read-out: Average Optimum Mean of DCA Plasma Levels, mM at 1 hr
  concentration at 1 h: 1 mM
[5]; Group B, 100mg/kg bolus and 12.5 mg/kg/hr infusion, patients with greatest degree of clinical benefits, n=7, read-out: Average Optimum Mean of DCA Plasma Levels, mM at 1 hr
  concentration at 1 h: 1.01 mM
[6]
  mortalities: no mortalities
